The target of data set [1] is Recombinant human TYK2 catalytic domain (Homo sapiens (Human), UniProt P29597). Briefly: TYK2 inhibition assay. The class given is biochemical. The following applies: 0.1 μM ATP. As for the experimental part: Recombinant human TYK2 catalytic domain (amino acids 871-1187; catalog number 08-147) was purchased from Carna biosciences. 5 ng of TYK2 was incubated with 12.5 μg polyGT substrate (Sigma catalog number P0275) in kinase reaction buffer (25 mM Hepes pH 7.5, 100 mM NaCl, 0.2 mM Na3VO4, 0.1% NP-40, 0.1 μM non-radioactive ATP, 0.125 μCi ^33P-gamma-ATP (GE Healthcare, catalog number AH9968) final concentrations) with or without 5 μL containing test compound or vehicle (DMSO, 1% final concentration), in a total volume of 25 μL, in a polypropylene 96-well plate (Greiner, V-bottom). After 90 min at 30° C., reactions were stopped by adding of 25 μL/well of 150 mM phosphoric acid. […] 40 μL/well of Microscint-20 was added, the top of the plates was sealed and readout was performed using the Topcount (Perkin Elmer). Kinase activity was calculated by subtracting counts per minute (cpm) obtained in the presence of a positive control inhibitor (10 μM staurosporine) from cpm obtained in the presence of vehicle. The ability of a test compound to inhibit this activity was determined as: Percentage inhibition=((cpm determined for sample with test compound present−cpm determined for sample with positive control inhibitor) divided by (cpm determined in the presence of vehicle−cpm determined for sample with positive control inhibitor))*100. […]
Recombinant human TYK2 catalytic domain, sequence (P29597 871-1187): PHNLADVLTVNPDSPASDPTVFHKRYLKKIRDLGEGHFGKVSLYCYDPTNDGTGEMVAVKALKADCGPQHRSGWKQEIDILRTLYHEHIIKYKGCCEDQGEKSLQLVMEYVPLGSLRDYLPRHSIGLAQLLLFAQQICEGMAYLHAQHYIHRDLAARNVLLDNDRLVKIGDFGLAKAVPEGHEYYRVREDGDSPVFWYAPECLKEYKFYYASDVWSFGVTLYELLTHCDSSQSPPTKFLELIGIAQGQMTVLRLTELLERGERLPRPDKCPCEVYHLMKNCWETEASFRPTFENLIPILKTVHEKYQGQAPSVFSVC

Data set [2] in a line: Caco2 permeability (bi-directional). The format is in vitro ADME. To be noted: human, pH 7.4. The method, then: Bi-directional Caco-2 assays were performed as described below. Caco-2 cells were obtained from European Collection of Cell Cultures (ECACC, cat 86010202) and used after a 21 day cell culture in 24-well Transwell plates (Fisher TKT-545-020B).
2×10^5 cells/well were seeded in plating medium consisting of DMEM+GlutaMAXI+1% NEAA+10% FBS (FetalClone II)+1% Pen/Strep. The medium was changed every 2-3 days.
Test and reference compounds (propranolol and rhodamine123 or vinblastine, all purchased from Sigma) were prepared in Hanks' Balanced Salt Solution containing 25 mM HEPES (pH7.4) and added to either the apical (125 μL) or basolateral (600 μL) chambers of the Transwell plate assembly at a concentration of 10 μM with a final DMSO concentration of 0.25%.
50μM Lucifer Yellow (Sigma) was added to the donor buffer in all wells to assess integrity of the cell layers by monitoring Lucifer Yellow permeation. […]
Lucifer yellow was measured with a Spectramax Gemini XS (Ex 426 nm and Em 538 nm) in a clean 96 well plate containing 150 μL of liquid from basolateral and apical side.
Concentrations of compound in the samples were measured by high performance liquid-chromatography/mass spectroscopy (LC-MS/MS).
The Efflux ratios, as an indication of active efflux from the apical cell surface, were calculated using the ratio of PappB>A/Papp A>B.

The target of data set [3] is JAK2 (Homo sapiens (Human), UniProt O60674). The experiment in a line: JAK2 Ki determination assay (polyGT, 33P filter plate). The class given is biochemical. To be noted: Lineweaver-Burk; polyGT substrate, 33P readout. The text has this:
For the determination of Ki, different amounts of inhibitor were mixed with the enzyme and the enzymatic reaction was followed as a function of ATP concentration. […] 0.025 mU of JAK2 (Invitrogen, PV4210) was used in the assay.

For data set [4], the system named is TNF release. Briefly: Septic shock model (LPS induced TNF release). The class given is in vivo, mouse. The following applies: 30 mg/kg po, LPS ip, statistically significant. As for the experimental part:
Injection of lipopolysaccharide (LPS) induces a rapid release of soluble tumour necrosis factor (TNF-alpha) into the periphery. This model is used to analyse prospective blockers of TNF release in vivo.
Six BALB/cJ female mice (20 g) per group are treated at the intended dosing once, po. Thirty minutes later, LPS (15 μg/kg; E. Coli serotype 0111:B4) is injected ip. Ninety minutes later, mice are euthanized and blood is collected. Circulating TNF alpha levels are determined using commercially available ELISA kits. Dexamethasone (5 μg/kg) is used as a reference anti-inflammatory compound. Selected compounds are tested at one or multiple doses, e.g. 3 and/or 10 and/or 30 mg/kg, po.

JAK2, sequence (O60674 849-1124): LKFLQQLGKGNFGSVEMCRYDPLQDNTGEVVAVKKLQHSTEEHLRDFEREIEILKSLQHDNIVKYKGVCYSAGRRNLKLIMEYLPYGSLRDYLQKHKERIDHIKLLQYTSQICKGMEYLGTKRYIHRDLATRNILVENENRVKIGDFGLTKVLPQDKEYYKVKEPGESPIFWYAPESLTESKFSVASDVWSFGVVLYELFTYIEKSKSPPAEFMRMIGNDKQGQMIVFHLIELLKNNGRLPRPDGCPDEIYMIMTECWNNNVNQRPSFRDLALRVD

A word on the IC50: it is the point on the concentration scale where inhibition reaches its midpoint. The Papp is a coefficient for how fast a substance crosses the barrier. A lower Papp goes with slow passage. As usually defined, the efflux ratio is the permeability from basolateral to apical divided by that in the opposite direction, in the common usage. Broadly, the Ki is a dissociation constant, usually derived from enzyme kinetics or from competition with a known ligand. The low end stands for tighter binding, the high end for weaker binding. For `CC1(C)CN(C(=O)c2ccc(-c3cccc4nc(NC(=O)C5CC5)nn34)cc2)C1` [Compound 1, Cyclopropanecarboxylic acid{5-[4-(3,3-dimethyl-azetidine-1-carbonyl)-phenyl]-[1,2,4]triazolo[1,5-a]pyridin-2-yl}-amide], in data set [1], the IC50 came out at 219 ± 37 nM. The Papp at 1 h, 10 μM in data set [2] (Caco-2, 10 μM, 1 hour, pH7.4) amounted to 7.8 ± 0.8 ×10⁻⁶ cm/s. Also, the efflux ratio at 1 h, 10 μM in data set [2] (Caco-2, Papp B>A / Papp A>B) was 6.1 ± 0.6. This compound came in with a Ki in data set [3] of 126 nM. The “reduction in the TNF release” value in data set [4] is given as over 50%.

The values are drawn from US8796457B2, “Compound useful for the treatment of degenerative and inflammatory diseases” (Galapagos NV, priority 2009, dated 2014).
